Holding throughout (type): cell-based
Experiment [1] deals with human ovarian cancer (SKOV3) cells. As to the kind of experiment: MTT tumor cell growth inhibition, human ovarian cancer (SKOV3). The note with it: Homo sapiens, SK-OV-3; SKOV3, 48 h culture, MTT method; read-out: IC50 value of target compound against cancer cell proliferation, SKOV3. The protocol: (§1) Dissolve CHJ compound series with dimethyl sultbxide (DMSO, final concentration 0.4%), and use RPMI-1640 culture medium containing 15% fetal calf serum to prepare 1 mg/mL solution for future use. During drug administration in groups, use the culture medium to dilute it to the concentration needed.
(§2) Cell lines: human lung cancer (A549), Inman ovarian cancer (SKOV3), human melanoma (A375) and human colon cancer (LOVO) cell lines, all purchased from the Cell Bank of the Chinese Academy of Sciences, DMEM containing 15% fetal bovine serum (High Glucose) culture medium, placed in a 37° C., 5% CO2 incubator.
(§3) MTT is an oxidizing yellow dye with the chemical name of 3-(4,5-dimethyl-2-thiazolyl)-2,5-diphenyl-2-H-tetrazoliumbromide tetrazole bromide. The MMT method, also known as the MTT colorimetric method, can test the survival and growth of cells. The method is simple and easily accessible and often used to screet the substance with cytotoxic activity. The basic principle of testing, is that succinodehydrogenase can reduce exogenous MIT so that MTT is reduced to blueviolet crystal Formazan insoluble to water. The crystal deposits in cells. The succinodehydrogenase exists in the mitochondria of living cells, not in the dead cells. Therefore, the chromogenic reaction can only take place in living cells. Then, dissolve the blueviolet crystal Formazan contained in cells with dimethyl sulfoxide (DMSO), and measure its absorbancy with microplate reader so that the count of living cells is reflected indirectly. Within the scope of certain cell count, the amount of blueviolet crystal Formazan formed is positively correlated to the count of living cells.
(§4) Human lung cancer (A549), human ovarian cancer (SKOV3), human melanoma (A375) and human colon cancer (LOVO) ceilsare all adherent. Based on the growth rate of tumor cells, wash the adherent tumor cells in the logarithmic phase and digest them in 0.25% EDTA pancreatic enzyme. Adjust the cell count to 1×10^5/mL and inoculate the cells in 96-pore plate, each pore containing 100 μL. Culture the cells in the 37° C. CO2 incubator, and administer the drug 24 h later. Add pharmaceutical (CJH compound series) of different concentrations to the administration group. Set up 5 dosage groups for each pharmaceutical, respectively 100, 10, 1, 0.1, 0.01 μmol/L. Set up three complex pores for each concentration. Set up blank control, DMSO (0.8%) solvent control and cis-platinum positive control. After 48 h of culture in the 37 ° C. incubator containing 5% CO2, measure the OD value through MTT method and calculate the cell inhibition ratio.
(§5) After 48 h of culture of human lung cancer (A549), human ovarian cancer (SKOV3). human melanoma (A375) and human colon cancer (LOVO) cells, stop it and add 10 μL 0.5% MTT solution to each pore. Place it in the CO2 incubator for 4 h. Remove the liquid from each pore, respectively add 0.2 mL DMSO solution, and oscillate it adequately on the table concentrator under low frequency so that the blueviolet crystal Formazan is dissolved adequately. Place it in the microplate reader and record the OD value at the wavelength of […]. Calculate the average OD value of three parallel pores of different concentrations, and calculate the cell inhibition ratio and IC50 of each tested pharmaceutical under different concentrations based on the average.
(§6) Inhibition ratio (%)=[1-tested sample OD/negative control group OD]×100%.
In general terms: Tetrazolium assays rely on reduction of a dye to a coloured formazan, in cell work by metabolically active cells.

The subject of experiment [2] is human lung cancer (A549) cells. In words: MTT tumor cell growth inhibition, human lung cancer (A549). The note with it: Homo sapiens; A549, 48 h culture, MTT method; read-out: IC50 value of target compound against cancer cell proliferation, A549. The protocol: as §1, §2, §3, §4, §5, §6
Experiment [3] deals with human melanoma (A375) cells. As to the kind of experiment: MTT tumor cell growth inhibition, human melanoma (A375). The following applies: Homo sapiens, A-375; A375, 48 h culture, MTT method; read-out: IC50 value of target compound against cancer cell proliferation, A375. The protocol:
as §1, §2, §3, §4, §5, §6

For experiment [4], the system named is human colon cancer (LOVO) cells. As to the kind of experiment: MTT tumor cell growth inhibition, human colon cancer (LOVO). The note with it: Homo sapiens, 48 h culture, MTT method, read-out: IC50 value of target compound against cancer cell proliferation, LOVO. The protocol:
as §1, §2, §3, §4, §5, §6

Each structure is given as a SMILES string.

In the case of `COc1cc(CN(C)CC(O)COc2ccc(Br)c(C(F)(F)F)c2)ccc1OCCN1CCC(C)CC1` (stereo not drawn) [CHJ02049, 1-(4-bromo-3-(trifluoromethyl)phenoxy)-3-((3-methoxy-4-(2-(4-methylpiperidin-1-yl)ethoxy)benzyl)(methyl)amino)propan-2-ol], the IC50 in experiment [1] turned out to be 0.62 ± 0.08 µM; in experiment [2], 0.52 ± 0.23 µM; in experiment [3] it was 0.62 ± 0.04 µM; in experiment [4] it was 1.25 ± 0.03 µM.
In the same order, the values of `COc1ccc(OCC(O)CN(C)Cc2ccc(OCCN3CCC(C)CC3)c(OC)c2)cc1` (stereo not drawn) [CHJ04084, 1-((3-methoxy-4-(2-(4-methylpiperidin-1-yl)ethoxy)benzyl)(methyl)amino)-3-(4-methoxyphenoxy)propan-2-ol] are 96.4 ± 2.72 µM, 42.7 ± 3.06 µM, 16.7 ± 2.48 µM and 7.54 ± 1.02 µM.
For `COc1cc(CN(C)CC(O)COc2cc(C(F)(F)F)ccc2Br)ccc1OCCN1CCC(C)CC1` (stereo not drawn) [CHJ04011], the IC50 in experiment [1] was determined as 2.41 ± 1.03 µM; in experiment [2], 4.05 ± 1.12 µM; in experiment [3], 0.48 ± 0.28 µM; in experiment [4], 1.01 ± 0.08 µM.
In the same order, the values of `COc1cc(CN(C)CC(O)COc2c(Cl)cccc2Cl)ccc1OCCN1CCC(C)CC1` (stereo not drawn) [CHJ02029, 1-(2,6-dichlorophenoxy)-3-((3-methoxy-4-(2-(4-methylpiperidin-1-yl)ethoxy)benzyl) (methyl)amino)propan-2-ol] are 6.3 ± 0.16 µM, 3.55 ± 0.06 µM, 2.43 ± 0.12 µM and 1.87 ± 0.02 µM.
In the same order, the values of `COc1cc(CN(C)CC(O)COc2ccc(C)c(Br)c2)ccc1OCCn1ccnc1` (stereo not drawn) [CHJ05003, 1-((4-(2-(1H-imidazol-1-yl)ethoxy)03-methoxybenzyl)(methyl)amino)-3-(3-bromo-4-methylphenoxy)propan-2-ol] are 35.1 ± 1.35 µM, 34 ± 2.11 µM, 24.9 ± 1.93 µM and 52.5 ± 1.22 µM.
In the same order, the values of `COc1cc(CN(C)CC(O)COc2cc(Cl)cc(Cl)c2)ccc1OCCN1CCC(C)CC1` (stereo not drawn) [CHJ04012, 1-(3,5-dichlorophenoxy)-3-((3-methoxy-4-(2-(4-methylpiperidin-1-yl)ethoxy)benzyl) (methyl)amino)propan-2-ol] are 4.34 ± 0.32 µM, 6.38 ± 0.07 µM, 1.24 ± 1.01 µM and 2.12 ± 0.04 µM.
With `COc1cc(CN(C)CC(O)COc2ccccc2I)ccc1OCCN1CCC(C)CC1` (stereo not drawn) [CHJ04027], the IC50 was 3.02 ± 1.76 µM in experiment [1], 6.22 ± 1.34 µM in experiment [2], 0.73 ± 0.13 µM in experiment [3] and 2.35 ± 1.04 µM in experiment [4].
In the same order, the values of `COc1cccc(OCC(O)CN(C)Cc2ccc(OCCN3CCC(C)CC3)c(OC)c2)c1` (stereo not drawn) [CHJ03017, 1-((3-methoxy-4-(2-(4-methylpiperidin-1-yl)ethoxy)benzyl)(methyl)amino)-3-(3-methoxyphenoxy)propan2-ol] are 6.21 ± 1.04 µM, 17.2 ± 0.79 µM, 8.68 ± 0.11 µM and 2.44 ± 0.03 µM.
`COc1cc(CN(C)CC(O)COc2ccccc2C(F)(F)F)ccc1OCCN1CCC(C)CC1` (stereo not drawn) [CHJ04082]: the IC50 came out at 28.5 ± 5.22 µM in experiment [1], 22.3 ± 1.98 µM in experiment [2], 7.51 ± 2.62 µM in experiment [3] and 2.82 ± 1.05 µM in experiment [4].
Turning to `COc1cc(CN(C)CC(O)COc2cccc(Br)c2)ccc1OCCN1CCC(C)CC1` (stereo not drawn) [CHJ03001, 1-(3-bromophenoxy)-3-((3-methoxy-4-(2-(4-methylpiperidin-1-yl)ethoxy)benzyl) (methyl)amino)propan-2-ol], the IC50 was found to be 2.48 µM in experiment [1], 1.3 ± 1.03 µM in experiment [2], 1.95 ± 0.33 µM in experiment [3] and 1.26 ± 0.53 µM in experiment [4].
Regarding `COc1cc(CN(C)CC(O)COc2ccc(Br)cc2)ccc1OCCn1ccnc1` (stereo not drawn) [CHJ05001], the IC50 in experiment [1] stood at 40.1 ± 3.02 µM; in experiment [2], 30.7 ± 3.12 µM; in experiment [3] it was 15.8 ± 1.73 µM; in experiment [4] it was 49.1 ± 2.71 µM.
In the same order, the values of `COc1cc(CN(C)CC(O)COc2cc(Br)ccc2F)ccc1OCCN1CCC(C)CC1` (stereo not drawn) [CHJ03018] are 1.79 ± 0.23 µM, 18.8 ± 1.06 µM, 3.13 ± 0.06 µM and 1.72 ± 1.58 µM.
Regarding `CCN(CC)CCOc1ccc(CN(C)CC(O)COc2ccc(Br)c(C(F)(F)F)c2)cc1OC` (stereo not drawn) [CHJ04093], the IC50 stood at 10.2 ± 1.69 µM in experiment [1], 20.1 ± 2.01 µM in experiment [2], 2.6 ± 1.22 µM in experiment [3] and 14.5 ± 2.14 µM in experiment [4].
In the same order, the values of `COc1cc(CN(C)CC(O)COc2cc(C(F)(F)F)ccc2Br)ccc1OCCn1ccnc1` (stereo not drawn) [CHJ04099, 1-((4-(2-(1H-imidazol-1yl)ethoxy)-3-methoxybenzyl)(methyl)amino)-3-(2-bromo-5-(trifluoromethyl)phenoxy)propan-2-ol] are 37.4 ± 2.48 µM, 23.1 ± 2.58 µM, 16.2 ± 2.11 µM and 38.2 ± 2.94 µM.
Regarding `COc1cc(CN(C)CC(O)COc2ccc(Cl)c(Cl)c2)ccc1OCCN1CCCC1` (stereo not drawn) [CHJ04072, 1-(3,4-dichlorophenoxy)-3-((3-methoxy-4-(2-(pyrrolidin-1-yl)ethoxy)benzyl)(methyl)amino)propan-2-ol], the IC50 in experiment [1] stood at 9.62 ± 4.23 µM; in experiment [2], 12.5 ± 2.44 µM; in experiment [3] it was 2.26 ± 0.37 µM; in experiment [4] it was 5.21 ± 2.31 µM.
Regarding `COc1cc(CN(C)CC(O)COc2ccccc2OC)ccc1OCCN1CCC(C)CC1` (stereo not drawn) [CHJ04086], the IC50 in experiment [3] came out at 34.7 ± 3.42 µM.
In the case of `COc1cc(CN(C)CC(O)COc2cccc(C(F)(F)F)c2)ccc1OCCN1CCC(C)CC1` (stereo not drawn) [CHJ04025, 1-((3-methoxy-4-(2-(4-methylpiperidin-1-yl)ethoxy)benzyl)(methyl)amino)-3-(3-(trifluoromethyl)phenoxy)propan-2-ol], the IC50 turned out to be 3.32 ± 1.02 µM in experiment [1], 4.21 ± 2.24 µM in experiment [2], 2.34 ± 1.63 µM in experiment [3] and 2.55 ± 1.65 µM in experiment [4].
In the same order, the values of `COc1cc(CN(C)CC(O)COc2ccc(Cl)c(Cl)c2)ccc1OCCN1CCC(C)CC1` (stereo not drawn) [CHJ04026, 1-(3,4-dichlophenoxy)-3-((3-methoxy-4-(2-(4-methylpiperidin-1-yl)ethoxy)benzyl) (methyl)amino)propan-2-ol] are 7.45 ± 2.26 µM, 0.97 ± 0.21 µM, 1.5 ± 0.06 µM and 0.82 ± 0.42 µM.
Take `COc1cc(CN(C)CC(O)COc2ccc(Br)cc2)ccc1OCCN1CCC(C)CC1` (stereo not drawn) [CHJ03014]: the values for the IC50 in experiment [1], in experiment [2] and in experiment [4] were 6.19 ± 0.62 µM, 1.09 ± 0.06 µM and 0.53 ± 0.15 µM, respectively.
On to `COc1cc(CN(C)CC(O)COc2ccc(C)c(Br)c2)ccc1OCCN1CCC(C)CC1` (stereo not drawn) [CHJ04010, 1-(3-bromo-4-methylphenoxy)-3-((3-methoxy-4-(2-(4-methylpiperidin-1-yl)ethoxy)benzyl)(methyl)amino)propan-2-ol], for which the IC50 came out at 4.96 ± 1.26 µM in experiment [1], 0.45 ± 0.46 µM in experiment [3] and 2.78 ± 0.23 µM in experiment [4].
On to `COc1cc(CN(C)CC(O)COc2cccc(C(C)C)c2)ccc1OCCN1CCC(C)CC1` (stereo not drawn) [CHJ03015, 1-(3-isopropylphenoxy)-3-((3-methoxy-4-(2-(4-methylpiperidin-1-yl)ethoxy)benzyl) (methyl)amino)propan-2-ol], for which the IC50 in experiment [1] was 4.47 ± 1.62 µM; in experiment [2], 1.03 ± 0.13 µM; in experiment [4] it was 0.55 ± 0.21 µM.
On to `COc1cc(CN(C)CC(O)COc2cc(C(F)(F)F)ccc2Br)ccc1OCCN1CCCC1` (stereo not drawn) [CHJ04065, 1-(-bromo-5-(trifluoromethyl)phenoxy)-3-((3-methoxy-4-(2-(pyrrolidin-1-yl)ethoxy)benzyl)(methyl)amino)propan-2-ol], for which the IC50 in experiment [1] is 27.1 ± 1.62 µM; in experiment [2], 25.5 ± 2.11 µM; in experiment [4], 3.14 ± 1.06 µM.

For the origin of these results see patent US20240166602A1, “SUBSTITUTED DIARYL COMPOUND AS WELL AS PREPARATION METHOD AND APPLICATION THEREOF” (SHANDONG FIRST MEDICAL UNIV & SHANDONG ACADEMY OF MEDICAL …, priority 2021, published 2024).
